{
  "source": "patent US20130310374A1",
  "about": "“Substituted Imidazoquinoline Derivatives” (PIRAMAL ENTERPRISES LIMITED`, priority 2010, published 2013)",
  "key": {"[1]": {"target": "T1, ALK1 (ACVRL1) (Homo sapiens, UniProt P37023)", "T1 construct": "recombinant human, catalytic domain of ALK1 (ACVRL1) or ALK2 (ACVR1) kinase GST fusion proteins; GST; purchased Invitrogen, USA", "T1 sequence (P37023 202-492 limits assumed)": "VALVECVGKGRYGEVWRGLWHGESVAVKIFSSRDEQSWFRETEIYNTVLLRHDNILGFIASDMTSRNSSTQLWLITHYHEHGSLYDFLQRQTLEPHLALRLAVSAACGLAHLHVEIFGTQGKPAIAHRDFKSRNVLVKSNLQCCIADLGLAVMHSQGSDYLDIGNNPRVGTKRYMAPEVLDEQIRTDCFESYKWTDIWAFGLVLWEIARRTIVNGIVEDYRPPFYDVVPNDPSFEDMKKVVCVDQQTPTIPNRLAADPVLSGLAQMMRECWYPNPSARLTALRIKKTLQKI", "assay": "ALK1 inhibition assay (TR-FRET)", "assay_type": "biochemical", "details": "20 μM ATP, read-out: IC50 for ALK-1", "experimental": "Protocol for ALK1 and ALK2 Inhibition Assay\nThe in vitro kinase assays using recombinant human, catalytic domain of ALK1 (ACVRL1) or ALK2 (ACVR1) kinase GST fusion proteins (Invitrogen, USA) were conducted using a time-resolved fluorescence (TR-FRET) format. Kinase reactions were carried out in a 384-well plate format in a final volume of 20 μl. The standard enzyme reaction buffer consisted of 50 mM Tris HCL (pH: 7.4), 1 mM EGTA, 10 mM MgCl2, 2 mM DTT, 0.01% Tween-20, 20 nM of ALK1/ALK2 kinase enzyme (Invitrogen, USA), 50 nM of peptide substrate (DNA Topoisomerase 2 alpha (Thr 1342)U1 peptide, Perkin Elmer, USA) and 20 μM of ATP. Various concentrations of compound of Example 3a in DMSO (final concentration 2%), was added to give a final concentration of the compound ranging from 20 μM to 20 pM. [20 nM of enzyme and compound in various concentrations were pre incubated for 10 minutes at 23° C. followed by the addition of 50 nM of the peptide substrate]. Reaction was initiated with the addition of 20 μM of ATP. After incubation for 1 hour at 23° C., kinase reaction was stopped with the addition of 5 μl EDTA (final concentration of 10 mM in 20 μl). […] The IC50 values for compound of Example 3a were determined by a four-parameter sigmoidal curve fit (Sigma plot or Graph pad)."}, "[2]": {"tested_on": "Human umbilical vein endothelial cells (HUVECs)", "assay": "VEGF induced tube formation assay", "assay_type": "cell-based", "details": "HUVECs on Matrigel, compound 75 nM, 18 hours; FIG. 2", "experimental": "Protocol for Tube Formation Assay\nCell Culture: Human umbilical vein endothelial cells (HUVECs) (ATCC) used in passages 2-7. The cells were grown in endothelial medium (Promocell, Germany) supplemented with 20% fetal bovine serum (FBS), 100 units/mL penicillin, 100 μg/mL streptomycin, 3 ng/mL basic fibroblast growth factor, and 5 units/mL heparin at 37° C. under a humidified 95% (v/v) mixture of air and CO2.\nTube Formation Assay: 250 μl of growth factor-reduced Matrigel (BD Biosciences) was pipetted into a 24 well tissue culture plate and polymerized for 30 minutes at 37° C. HUVECs incubated in endothelial media containing 1% FBS for 6 hours were harvested after trypsin treatment and suspended in endothelial media containing 1% FBS. Compounds of present invention (75 nM) were added to the cells for 30 minutes at RT before seeding and plated onto the layer of Matrigel at a density of 2×10^4 cells/well, and followed by the addition of 2 mL of 40 ng/mL VEGF. After 18 hours, the cultures were photographed.\nResults: When HUVECs were placed on growth factor-reduced Matrigel in the presence of VEGF, VEGF led to the formation of elongated and robust tube-like structures, which were organized by much larger number of cells compared with the control."}},
  "data": [
    {"smiles": "CS(=O)(=O)O.Cn1c(=O)n(-c2ccc(C(C)(C)C#N)nc2)c2c3cc(-c4cnc(N)c(C(F)(F)F)c4)ccc3ncc21", "note": "[Example 3a, 8-(6-Amino-5-(trifluoromethyl)pyridin-3-yl)-1-(6-(2-cyanopropan-2-yl)pyridin-3-yl)-3-methyl-2-oxo-2,3-dihydro-1H-imidazo[4,5-c]quinolin-5-ium methanesulfonate]", "values": [
      {"measurement": "IC50", "setting": "[1]", "value": 0.042, "unit": "µM"},
      {"measurement": "VEGF (40 ng/mL) induced tube formation", "setting": "[2]", "value": "effectively abrogated the width and the length of endothelial tubes induced by VEGF"}
    ]}
  ]
}
